Experimental data published in patent US11447482B1, “Imidazopyridine and oxazolopyridine derivatives and analogs thereof, methods of preparation thereof, methods of HIF-2A pathway inhibition, and induction of ferroptosis” (KUDA Therapeutics, Inc., priority 2019, dated 2022).
Where two headings read alike, the source gives them in different places.

Assay: Bioavailability determination of KD025HCl in mice (plasma levels after IV or PO)
Format: in vivo
Details: male, mouse, plasma; for concentration at 0.5 h: 0.50 h; for MRT last: read-out: MRT0-last
Method: To determine the bioavailability KD025HCl, serum concentrations of KD025HCl were determined after varying durations following oral or intravenous (IV) administration. Doses were validated by LC/MS/MS.
For IV administration, 264 μl of N-Methyl-2-Pyrrolidone (NMP) was added to 1.221 mg of KD025HCl, and the solution vortexed and sonicated until complete dissolution. Then, 2.374 ml of 10% (v/v) solutol in water for injection was added, and the solution vortexed, then sonicated with a bath sonicator. The final dosing formulation of a brownish colored clear solution. A single 2 mg/kg dose (5 ml/kg) was administered IV each to nine male Swiss albino mice.
For oral administration (PO), […] of Tween-80 was added to 3.38 mg of KD025HCl, triturated, then 2.893 ml of 0.5% methyl cellulose was added in parts with continuous trituration then vortexed. The final dosing formulation was a brownish colored clear solution. A single 10 mg/kg dose (10 ml/kg) was administered PO each to nine male Swiss albino mice.
Calibration Curve & QC preparation: 2.0 μl of calibration curve standards were added to […] of blank matrix and precipitated with 200 μl of Acetonitrile containing an internal standard at 200 ng/ml. The solution was vortexed for 5 min at 850 rpm, then centrifuged at 4000 rpm for 5 min at 4° C. 110 μl of the supernatant was obtained and diluted with 130 μl of (Methanol:water, 1:1 v/v). Sample Preparation: 50 μl of sample was precipitated with 200 μl of Acetonitrile containing the internal standard at 200 ng/ml. The mixture was vortexed for 5 min at 850 rpm, then centrifuged at 4000 rpm for 5 min at 4° C. 110 μL of supernatant was obtained and diluted with 130 μL of (Methanol:water, 1:1 v/v).
Using this procedure, the plasma levels of KD025HCl after either IV or PO administration was determined, and bioavailability as well as other pharmacokinetic parameters were determined and shown in Table 6.

[1] = Swiss albino, iv, 2 mg/kg, IV 2.00 mg/kg, read-out: Plasma concentration, Mean
[2] = Swiss albino, po, 10 mg/kg, PO 10.00 mg/kg, read-out: Plasma concentration, Mean
[3] = Swiss albino, po, 10 mg/kg, PO 10.00 mg/kg, read-out: Plasma concentration, individual animals (M1-, M2-, M3-)
[4] = IV 2.00 mg/kg, Swiss albino mice
[5] = PO 10.00 mg/kg, Swiss albino mice

concentration at 1 h [1]: 790 ng/mL | concentration at 2 h [1]: 407 ng/mL | concentration at 4 h [1]: 38 ng/mL | concentration at 4 h (Swiss albino, iv, 2 mg/kg, IV 2.00 mg/kg, read-out: Plasma concentration, individual animals (M1-, M2-, M3-)): 37.2 ng/mL | concentration at 8 h [1]: 18.6 ng/mL | Vd (Swiss albino, iv, 2 mg/kg, IV 2.00 mg/kg, read-out: Vd): 1.24 L/kg | Vd (Swiss albino, iv, 2 mg/kg, IV 2.00 mg/kg, read-out: Vss): 0.72 L/kg | concentration at 0.25 h (Swiss albino, po, 10 mg/kg, PO 10.00 mg/kg, 0.25 h, read-out: Plasma concentration, Mean): 1260 ng/mL | concentration at 0.5 h [2]: 1910 ng/mL | concentration at 0.5 h [3]: 1970 ng/mL | concentration at 1 h [2]: 1140 ng/mL | concentration at 1 h [3]: 1570 ng/mL | concentration at 2 h [2]: 953 ng/mL | concentration at 2 h [3]: 945 ng/mL | concentration at 4 h [2]: 170 ng/mL | concentration at 6 h [2]: 127 ng/mL | concentration at 6 h [3]: 160 ng/mL | concentration at 8 h [2]: 78.6 ng/mL | concentration at 8 h [3]: 85.5 ng/mL | concentration at 24 h (Swiss albino, po, 10 mg/kg, PO 10.00 mg/kg, 24.00 h, BLQ: Below limits of quantitation, read-out: Plasma concentration, individual animals (M1-, M2-, M3-)): 1.79 ng/mL | bioavailability (PO 10.00 mg/kg versus IV 2.00 mg/kg, Swiss albino mice, read-out: Bio availability (% f)): 27.3% | AUC(0-inf) [4]: 3050 ng·h/mL | AUC(0-t) [4]: 3010 ng·h/mL | clearance [4]: 10.9 mL/min/kg | half-life [4]: 1.31 h | MRT last [4]: 0.99 h | AUC(0-inf) [5]: 4160 ng·h/mL | AUC(0-t) [5]: 3750 ng·h/mL | Cmax [5]: 1910 ng/mL | Tmax [5]: 0.5 h | half-life [5]: 3.61 h | MRT last [5]: 2.03 h
SMILES: COc1ccc(-c2nnc(Nc3nc4c(OC)nccc4[nH]3)o2)cc1OC [KD025HCl, N-(4-Methoxy-1H-imidazo[4,5-c]pyridin-2-yl)-5-(3,4-dimethoxyphenyl)-1,3,4-oxadiazol-2-amine]
